Legend:
blood platelet = experiment: Aggregation inhibition activity of blood platelet (ADP-induced, platelet rich plasma of orally dosed rats); type: in vivo, Wister-Imamich strain male rats; settings: rat, 20 mg/kg oral, 6 hours; adenosine-5'-diphosphate 10^-5 M in platelet rich plasma
Experimental: In this Example Wister-Imamich strain male rats weighing 230 ± 30 g which had been bred with the use of a commercial chow, CLEA CE-2 were used.
The rats were divided into groups of five members each, and orally administered with a different ascochlorin derivative as a suspension in 2% gum arabic aqueous solution in a dose of 20 mg/kg.body weight. Six hours after the administration, the blood of each rat was sampled from the heart and after the addition of citric acid, the blood sample was centrifuged at 1,500 r.p.m. for 10 minutes to obtain platelet rich plasma. The anti-aggregation effect when the concentration of adenosine-5'-diphosphatein the platelet rich plasma is ultimately 10^^-5 M is shown in Table II.
As positive controls, ascochlorin, ethyl-α-(p-chlorophenoxy) isobutylate and acetyl salicyclic acid were used. The aggregation inhibition ratio was evaluated in percent by comparing the increase of transmission rate caused by the addition of adenosin-5'-diphosphate to platelet rich plasma of the control group (no medication) with that caused on the groups administered with an ascochlorin derivative which is calculated for 100.

Cholesterol in serum = experiment: Serum cholesterol lowering activity in rats on high-fat feed, single oral dose; type: in vivo, Wister-Imamich strain male rats; settings: rat, 75 mg/kg oral, 6 hours after administration
Description: The cholesterol lowering activity of the ascochlorin derivatives of this invention was observed by the use of Wister-Imamich strain male rats weighing 230 ± 30 g which had been bred with the use of high-fat feed comprising 1000 g of powdery chow CLEA CE-2 (sold by NIHON CLEA KABUSHIKI KAISHA) admixed with 10 g of cholesterol, 95 g of hydrogenated coconut oil, 2 g of cholic acid, 150 g of milk casein and 671 g of sucrose.
The rats were divided into groups of five members each, and orally administered with a different ascochlorin derivative as a suspension in gum arabic aqueous solution in a dose of 75 mg/kg.body weight. The rats were kept from eating food, and 6 hours after the administration, the blood of each rat was sampled from its heart. The total amount of cholesterol in serum was determined by a modified Zurkowski method (Clinical Chemistry, 10, 451, 1964) with the use of a colorimeter for blood analysis (sold by KYOTO DAIICHI KAGAKU).

Acute toxicity, mouse = settings: in vivo
Description: (§1) Acute toxicity of the ascochlorin derivatives was observed by the use of Wister-Imamichi strain male rats weighing 230 ± 30 g and ddY strain male and female mice (5 weeks old) weighing 20 ±3 g which were divided into groups of 10 members each. Japanese native male rabbits weighing 2 kg ± 300 g which were divided into groups of five members each were also used. The test animals were orally or intraperitoneally administered with a different ascochlorin derivative as a suspension in 5% gum arabic aqueous solution, and the toxicity was compared with that of control in which ascochlorin was used.

Acute toxicity, rat = settings: in vivo, male
Description: as §1

Acute toxicity, rabbit = experiment: Acute toxicity, rabbit; design: species or system Japanese native male rabbits; settings: in vivo, male, oral
Description: as §1

arteriosclerosis = experiment: Treatment of arteriosclerosis in human beings, oral administration; type: in vivo; settings: 50 mg dose after every meal, study not completed
Description: In order to treat arteriosclerosis by the use of the composition prepared according to the present invention, mammals and poultry are orally administered with the pharmaceutical composition prepared according to the present invention once or more a day. Especially, for human beings, it is preferable to administer the composition three times per day, after every meal. For animals other than human beings, the composition may be administered alone or by mixing it with feed. As stated above, the dose of the composition depends on the kind of animals to which it is to be administered and on the form of the composition. However, the dose ranges generally 0.05-500, preferably 0.5-50 mg/kg.body weight per day based on the ascochlorin derivative.

Serum Lipid = experiment: Hypolipidemic activity: change in level of serum lipid, 30 days, high-fat feed; type: in vivo, Wister strain rats; settings: rat; for Serum Cholesterol / Serum Free fatty acid / Serum Phospholipid / Serum Triglyceride / Serum β-Lipoprotein: average ± standard error
Lipid in liver and aorta = experiment: Hypolipidemic activity: change of lipid level in organs and aorta abdominalis, 30 days, high-fat feed; type: in vivo, Wister strain rats; design: Cholesterol in Tunica intima of aorta abdominalis: unit not given here; settings: rat; for Cholesterol in Liver / Cholesterol in Tunica intima of aorta abdominalis / Phospholipid in Liver / Triglyceride in Liver: average ± standard error
Experimental: Wister strain rats weighing 150 ± 20 g were divided into groups of 10 members each and bred with high-fat feed, the same as that used in Example 1. The rats were orally administered ascochlorin, 4-O-methylascochlorin or ethyl-α-(p-chlorophenoxy) isobutylate in a predetermined dose every morning for 30 days. Six hours after the last administration, liver and aorta of each rat were taken out and lipid level in the organs of each of the rats were determined. Lipid present in the liver and aorta was extracted with methanol-chloroform (1:1) by allowing it to stand overnight and the extract was assayed as to lipid level.

## CCOc1c(Cl)c(C)c(C=O)c(O)c1C/C=C(C)/C=C/C1(C)C(C)CCC(=O)C1C (stereo not shown) [4-O-ethylascochlorin]
Blood platelet
  Aggregation Inhibition Ratio: 55.3%
Cholesterol in serum
  Cholesterol in serum: 82.2 mg/dL
Acute toxicity, mouse; ip, male
  LD50: 5600 mg/kg
Acute toxicity, rat; ip
  LD50: 5100 mg/kg

## CC(/C=C/C1(C)C(C)CCC(=O)C1C)=C\Cc1c(O)c(C=O)c(C)c(Cl)c1OCC(C)C (stereo not shown) [4-O-isobutylascochlorin]
Blood platelet
  Aggregation Inhibition Ratio: 48.8%
Cholesterol in serum
  Cholesterol in serum: 88.5 mg/dL

## CC(/C=C/C1(C)C(C)CCC(=O)C1C)=C\Cc1c(O)c(C=O)c(C)c(Cl)c1OC(C)C (stereo not shown) [4-O-isopropylascochlorin]
Blood platelet
  Aggregation Inhibition Ratio: 57.2%
Cholesterol in serum
  Cholesterol in serum: 85.6 mg/dL

## COc1c(Cl)c(C)c(C=O)c(O)c1C/C=C(C)/C=C/C1(C)C(C)CCC(=O)C1C (stereo not shown) [4-O-methylascochlorin]
Blood platelet
  Aggregation Inhibition Ratio: 70.5%
Cholesterol in serum
  Cholesterol in serum: 76.6 mg/dL
Acute toxicity, rabbit
  LD50: > 2000 mg/kg
arteriosclerosis
  effect in human beings: satisfactory effect
Acute toxicity, mouse; ip, female
  LD50: 5500 mg/kg
Acute toxicity, mouse; ip, male
  LD50: 5000 mg/kg
Acute toxicity, mouse; po, female
  LD50: > 7300 mg/kg
Acute toxicity, mouse; po, male
  LD50: > 7300 mg/kg
Acute toxicity, rat; ip
  LD50: 3100 mg/kg
Acute toxicity, rat; oral
  LD50: > 10000 mg/kg
Serum Lipid; 2.25 mg/kg oral
  Serum Cholesterol, increasing or reducing ratio based on the control: -4.2
  Serum Free fatty acid, increasing or reducing ratio based on the control: -2.4
  Serum Phospholipid, increasing or reducing ratio based on the control: -12.2
  Serum Triglyceride, increasing or reducing ratio based on the control: -6.8
  Serum β-Lipoprotein, increasing or reducing ratio based on the control: +7.3
  Serum Cholesterol: 102.4 ± 13.8 mg/dL
  Serum Free fatty acid: 49.1±8.2 μ eq./dl
  Serum Phospholipid: 119.7 ± 12.5 mg/dL
  Serum Triglyceride: 74.5 ± 9.8 mg/dL
  Serum β-Lipoprotein: 819 ± 109 mg/dL
Serum Lipid; 9 mg/kg or more, oral
  levels of all types of lipids: extremely lowered
Serum Lipid; 9.0 mg/kg oral
  Serum Cholesterol, increasing or reducing ratio based on the control: -18.6
  Serum Free fatty acid, increasing or reducing ratio based on the control: -10.4
  Serum Phospholipid, increasing or reducing ratio based on the control: -13.2
  Serum Triglyceride, increasing or reducing ratio based on the control: -19.0
  Serum β-Lipoprotein, increasing or reducing ratio based on the control: -22.3
  Serum Cholesterol: 87.0 ± 4.9 mg/dL
  Serum Free fatty acid: 44.8±3.5 μ eq./dl
  Serum Phospholipid: 118.4 ± 5.8 mg/dL
  Serum Triglyceride: 64.8 ± 5.2 mg/dL
  Serum β-Lipoprotein: 593 ± 85 mg/dL
Serum Lipid; 22.5 mg/kg oral
  Serum Cholesterol, increasing or reducing ratio based on the control: -16.9
  Serum Free fatty acid, increasing or reducing ratio based on the control: -16.3
  Serum Phospholipid, increasing or reducing ratio based on the control: -13.5
  Serum Triglyceride, increasing or reducing ratio based on the control: -20.5
  Serum β-Lipoprotein, increasing or reducing ratio based on the control: -22.8
  Serum Cholesterol: 88.8 ± 9.1 mg/dL
  Serum Free fatty acid: 42.1±2.7 μ eq./dl
  Serum Phospholipid: 117.9 ± 6.5 mg/dL
  Serum Triglyceride: 63.6 ± 4.6 mg/dL
  Serum β-Lipoprotein: 589 ± 133 mg/dL
Lipid in liver and aorta; 2.25 mg/kg oral
  Cholesterol in Liver, increasing or reducing ratio based on the control: +12.9
  Cholesterol in Tunica intima of aorta abdominalis, increasing or reducing ratio based on the control: -8.1
  Phospholipid in Liver, increasing or reducing ratio based on the control: +2.6
  Triglyceride in Liver, increasing or reducing ratio based on the control: -23.6
  Cholesterol in Liver: 38.4 ± 6.4 mg/g
  Cholesterol in Tunica intima of aorta abdominalis: 18.2±1.4
  Phospholipid in Liver: 72.0 ± 5.3 mg/g
  Triglyceride in Liver: 16.7 ± 1.3 mg/g
Lipid in liver and aorta; 9 mg/kg or more, oral
  amount of lipids in liver and cholesterol in aorta: remarkably reduced
Lipid in liver and aorta; 9.0 mg/kg oral
  Cholesterol in Liver, increasing or reducing ratio based on the control: -15.0
  Cholesterol in Tunica intima of aorta abdominalis, increasing or reducing ratio based on the control: -29.3
  Phospholipid in Liver, increasing or reducing ratio based on the control: -1.6
  Triglyceride in Liver, increasing or reducing ratio based on the control: -21.1
  Cholesterol in Liver: 28.9 ± 3.6 mg/g
  Cholesterol in Tunica intima of aorta abdominalis: 14.0±0.3
  Phospholipid in Liver: 69.1 ± 9.9 mg/g
  Triglyceride in Liver: 17.2 ± 2.8 mg/g
Lipid in liver and aorta; 22.5 mg/kg oral
  Cholesterol in Liver, increasing or reducing ratio based on the control: -21.8
  Cholesterol in Tunica intima of aorta abdominalis, increasing or reducing ratio based on the control: -32.8
  Phospholipid in Liver, increasing or reducing ratio based on the control: -12.0
  Triglyceride in Liver, increasing or reducing ratio based on the control: -22.1
  Cholesterol in Liver: 26.6 ± 2.2 mg/g
  Cholesterol in Tunica intima of aorta abdominalis: 13.3±0.4
  Phospholipid in Liver: 61.8 ± 4.3 mg/g
  Triglyceride in Liver: 17.0 ± 0.7 mg/g

## CCCCOc1c(Cl)c(C)c(C=O)c(O)c1C/C=C(C)/C=C/C1(C)C(C)CCC(=O)C1C (stereo not shown) [4-O-n-butylascochlorin]
Blood platelet
  Aggregation Inhibition Ratio: 53.7%
Cholesterol in serum
  Cholesterol in serum: 86.9 mg/dL

## CCCOc1c(Cl)c(C)c(C=O)c(O)c1C/C=C(C)/C=C/C1(C)C(C)CCC(=O)C1C (stereo not shown) [4-O-n-propylascochlorin]
Blood platelet
  Aggregation Inhibition Ratio: 56.5%
Cholesterol in serum
  Cholesterol in serum: 84.3 mg/dL

## CCC(C)Oc1c(Cl)c(C)c(C=O)c(O)c1C/C=C(C)/C=C/C1(C)C(C)CCC(=O)C1C (stereo not shown) [4-O-sec-butylascochlorin]
Blood platelet
  Aggregation Inhibition Ratio: 51.1%
Cholesterol in serum
  Cholesterol in serum: 89.1 mg/dL

## CC(/C=C/C1(C)C(C)CCC(=O)C1C)=C\Cc1c(O)c(C=O)c(C)c(Cl)c1OC(C)(C)C (stereo not shown) [4-O-tert-butylascochlorin]
Blood platelet
  Aggregation Inhibition Ratio: 60.5%
Cholesterol in serum
  Cholesterol in serum: 82.7 mg/dL

## CC(=O)Oc1ccccc1C(=O)O [acetyl salicylic acid, reference compound]
Blood platelet
  Aggregation Inhibition Ratio: 73.1%

## CCOC(=O)C(C)(C)Oc1ccc(Cl)cc1 [ethyl-α-(p-chlorophenoxy) isobutylate, reference compound]
Blood platelet
  Aggregation Inhibition Ratio: 0%
Cholesterol in serum
  Cholesterol in serum: 103.8 mg/dL
Serum Lipid; 45.0 mg/kg oral
  Serum Cholesterol, increasing or reducing ratio based on the control: +7.9
  Serum Free fatty acid, increasing or reducing ratio based on the control: -10.1
  Serum Phospholipid, increasing or reducing ratio based on the control: -0.7
  Serum Triglyceride, increasing or reducing ratio based on the control: -9.2
  Serum β-Lipoprotein, increasing or reducing ratio based on the control: -3.7
  Serum Cholesterol: 115.3 ± 5.5 mg/dL
  Serum Free fatty acid: 45.2±1.6 μ eq./dl
  Serum Phospholipid: 135.9 ± 13.6 mg/dL
  Serum Triglyceride: 72.1 ± 4.4 mg/dL
  Serum β-Lipoprotein: 738 ± 46 mg/dL
Serum Lipid; oral, groups of Tables IV and V
  lowering of lipids in serum, liver and aorta (such effects): such effects were not observed
Lipid in liver and aorta; 45.0 mg/kg oral
  Cholesterol in Liver, increasing or reducing ratio based on the control: +20.6
  Cholesterol in Tunica intima of aorta abdominalis, increasing or reducing ratio based on the control: -14.7
  Phospholipid in Liver, increasing or reducing ratio based on the control: +13.2
  Triglyceride in Liver, increasing or reducing ratio based on the control: +10.7
  Cholesterol in Liver: 41.0 ± 4.5 mg/g
  Phospholipid in Liver: 79.5 ± 3.1 mg/g
  Triglyceride in Liver: 24.2 ± 2.2 mg/g

— US3995061A, “Pharmaceutical composition and method of using the same” (Chugai Seiyaku Kabushiki Kaisha, priority 1974, dated 1976)
